*1 amine or outer side, *2 acyl side, *3 side chain or, on linkers, in order; H or OH if unused. Where a SMILES comes first, the peptide text is derived from it. Side-chain parts run from the residue outwards. The star is where a group is joined. C18 diacid = O=C(O)CCCCCCCCCCCCCCCCC(=O)*; γGlu = O=C(O)[C@H](CCC(=O)[*:2])N[*:1]; Isovaleryl = CC(C)CC(=O)*; Ahx = NCCCCCC(=O)O
Tests used:
[1] = target: T1, Human Neuropeptide Y2 Receptor (Homo sapiens, UniProt P49146); test: Radioligand binding competition assay (RLB); settings: Table 3, 125I-PYY(1-36) competition; read-out: Ki
T1 construct: purchased CHEMICON HTS066M
T1 sequence (P49146 1-381): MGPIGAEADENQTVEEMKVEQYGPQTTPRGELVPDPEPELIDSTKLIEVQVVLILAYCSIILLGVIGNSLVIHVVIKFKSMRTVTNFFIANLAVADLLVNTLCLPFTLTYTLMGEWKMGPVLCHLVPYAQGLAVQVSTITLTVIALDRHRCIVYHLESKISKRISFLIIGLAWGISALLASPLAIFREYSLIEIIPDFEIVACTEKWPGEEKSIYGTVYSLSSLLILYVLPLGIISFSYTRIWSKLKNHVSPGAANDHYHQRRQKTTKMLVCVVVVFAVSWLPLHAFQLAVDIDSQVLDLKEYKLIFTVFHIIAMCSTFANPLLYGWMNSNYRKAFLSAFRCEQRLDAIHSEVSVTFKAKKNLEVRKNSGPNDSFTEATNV
Procedure, shortened: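 Receptor membranes, 0.5 μg/well; buffer 50 mM HEPES/5 mM MgCl2/1 mM CaCl2/0.2% ovalbumin, pH 7.4; 2 h RT, shaking. GF/C filtration, cold HEPES/500 mM NaCl wash, scintillation count. IC50 by nonlinear regression.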

Solubility determination = settings: for Sol6: pH 6; for Sol7: pH 7
Procedure, shortened: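 First, TFA-salt peptide was added to 0.1 M sodium diphosphate (pH 6.4 or 7.0) to 10 mg/ml and shaken 2 h at room temperature. Next, insoluble material was filtered off. Finally, filtrate and control, each 1 mg/ml in 50% acetonitrile, were compared by reversed-phase chromatography.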

Row | SMILES | Ki [1] [nM] | Sol6 (Solubility determination) [mg/mL] | Sol7 (Solubility determination) [mg/mL]
1 | CC[C@H](C)[C@H](NC(=O)[C@H](CCC(=O)O)NC(=O)[C@H](CCC(=O)O)NC(=O)[C@@H]1CCCN1C(=O)[C@H](CCC(=O)O)NC(=O)[C@H](C)NC(=O)[C@H](C)NC(=O)[C@H](C)NC(=O)[C@H](CCC(=O)O)NC(=O)[C@@H]1CCCN1C(=O)[C@H](CCCCNC(=O)CCCCCNC(=O)CC[C@H](NC(=O)CCCCCCCCCCCCCCCCC(=O)O)C(=O)O)NC(=O)[C@H](CCC(=O)O)NC(=O)[C@@H]1CCCN1C(=O)[C@H](C)NC(=O)CC(C)C)C(=O)N[C@@H](CCC(N)=O)C(=O)N[C@@H](CCCNC(=N)N)C(=O)N[C@@H](Cc1ccc(O)cc1)C(=O)N[C@@H](Cc1ccc(O)cc1)C(=O)N[C@H](C(=O)N[C@@H](CO)C(=O)N[C@@H](CC(C)C)C(=O)N[C@@H](CCCNC(=N)N)C(=O)N[C@@H](Cc1c[nH]cn1)C(=O)N[C@@H](Cc1ccc(O)cc1)C(=O)N[C@@H](Cc1ccc(O)cc1)C(=O)N[C@@H](CC(N)=O)C(=O)N[C@@H](Cc1c[nH]c2ccccc12)C(=O)N[C@@H](CC(C)C)C(=O)N[C@H](C(=O)N[C@@H](CCCNC(=N)N)C(=O)N[C@@H](CCC(N)=O)C(=O)N[C@@H](CCCNC(=N)N)C(=O)N[C@@H](Cc1ccc(O)cc1)C(N)=O)[C@@H](C)O)C(C)C [Compound 124, N{alpha-4}-(3-methylbutanoyl)-N{epsilon-7}-(6-[(4S)-4-carboxy-4-(17-carboxyheptadecanamido)butanamido]hexanoyl)-[4A,7K,9E,10A,11A,13E,17I,18Q,22V,28Y,30W,31L]-hPYY(4-36)] (Isovaleryl-APEK([Ahx-γGlu-C18 diacid])PEAAAEPEEIQRYYVSLRHYYNWLTRQRY-NH2) | 3.07 | 9.7 | >10.0
2 | CC(C)CC(=O)N[C@@H](C)C(=O)N1CCC[C@H]1C(=O)N[C@@H](CCC(=O)O)C(=O)N[C@@H](CCCCNC(=O)CCCCCNC(=O)CC[C@H](NC(=O)CCCCCCCCCCCCCCCCC(=O)O)C(=O)O)C(=O)N1CCC[C@H]1C(=O)N[C@@H](CCC(=O)O)C(=O)N[C@@H](CCC(=O)O)C(=O)N[C@@H](CC(=O)O)C(=O)N[C@@H](C)C(=O)N[C@@H](CO)C(=O)N1CCC[C@H]1C(=O)N[C@@H](CCC(=O)O)C(=O)N[C@@H](CCC(=O)O)C(=O)N[C@@H](CC(C)C)C(=O)N[C@@H](CCC(N)=O)C(=O)N[C@@H](CCCNC(=N)N)C(=O)N[C@@H](Cc1ccc(O)cc1)C(=O)N[C@@H](Cc1ccc(O)cc1)C(=O)N[C@H](C(=O)N[C@@H](CCC(=O)O)C(=O)N[C@@H](CC(C)C)C(=O)N[C@@H](CCCNC(=N)N)C(=O)N[C@@H](Cc1c[nH]cn1)C(=O)N[C@@H](Cc1ccc(O)cc1)C(=O)N[C@@H](Cc1ccc(O)cc1)C(=O)N[C@@H](CC(N)=O)C(=O)N[C@@H](Cc1c[nH]c2ccccc12)C(=O)N[C@@H](CC(C)C)C(=O)N[C@H](C(=O)N[C@@H](CCCNC(=N)N)C(=O)N[C@@H](CCC(N)=O)C(=O)N[C@@H](CCCNC(=N)N)C(=O)N[C@@H](Cc1ccc(O)cc1)C(N)=O)[C@@H](C)O)C(C)C [Compound 125, N{alpha-4}-(3-methylbutanoyl)-N{epsilon-7}-(6-[(4S)-4-carboxy-4-(17-carboxyheptadecanamido)butanamido]hexanoyl)-[4A,7K,9E,18Q,22V,23E,28Y,30W,31L]-hPYY(4-36)] | 3.37 | 9.7 | 10.0
3 | CC(C)CC(=O)N[C@@H](C)C(=O)N1CCC[C@H]1C(=O)N[C@@H](CCC(=O)O)C(=O)N[C@@H](CCCCNC(=O)CCCCCNC(=O)CC[C@H](NC(=O)CCCCCCCCCCCCCCCCC(=O)O)C(=O)O)C(=O)N1CCC[C@H]1C(=O)N[C@@H](CCC(=O)O)C(=O)N[C@@H](CCC(=O)O)C(=O)N[C@@H](CC(=O)O)C(=O)N[C@@H](C)C(=O)N[C@@H](CCC(=O)O)C(=O)N1CCC[C@H]1C(=O)N[C@@H](CCC(=O)O)C(=O)N[C@@H](CCC(=O)O)C(=O)N[C@@H](CC(C)C)C(=O)N[C@@H](CCC(N)=O)C(=O)N[C@@H](CCCNC(=N)N)C(=O)N[C@@H](Cc1ccc(O)cc1)C(=O)N[C@@H](Cc1ccc(O)cc1)C(=O)N[C@H](C(=O)N[C@@H](CO)C(=O)N[C@@H](CC(C)C)C(=O)N[C@@H](CCCNC(=N)N)C(=O)N[C@@H](Cc1c[nH]cn1)C(=O)N[C@@H](Cc1ccc(O)cc1)C(=O)N[C@@H](Cc1ccc(O)cc1)C(=O)N[C@@H](CC(N)=O)C(=O)N[C@@H](Cc1c[nH]c2ccccc12)C(=O)N[C@@H](CC(C)C)C(=O)N[C@H](C(=O)N[C@@H](CCCNC(=N)N)C(=O)N[C@@H](CCC(N)=O)C(=O)N[C@@H](CCCNC(=N)N)C(=O)N[C@@H](Cc1ccc(O)cc1)C(N)=O)[C@@H](C)O)C(C)C [Compound 126, N{alpha-4}-(3-methylbutanoyl)-N{epsilon-7}-(6-[(4S)-4-carboxy-4-(17-carboxyheptadecanamido)butanamido]hexanoyl)-[4A,7K,9E,13E,18Q,22V,28Y,30W,31L]-hPYY(4-36)] | 4.42 | 9.6 | 8.8
4 | CC(C)CC(=O)N[C@@H](C)C(=O)N1CCC[C@H]1C(=O)N[C@@H](CCC(=O)O)C(=O)N[C@@H](CCCCNC(=O)CCCCCNC(=O)CC[C@H](NC(=O)CCCCCCCCCCCCCCCCC(=O)O)C(=O)O)C(=O)N1CCC[C@H]1C(=O)N[C@@H](CCC(=O)O)C(=O)N[C@@H](C)C(=O)N[C@@H](C)C(=O)N[C@@H](C)C(=O)N[C@@H](CCC(=O)O)C(=O)N1CCC[C@H]1C(=O)N[C@@H](CCC(=O)O)C(=O)N[C@@H](CCC(=O)O)C(=O)N[C@@H](CC(C)C)C(=O)N[C@@H](CCC(N)=O)C(=O)N[C@@H](CCCNC(=N)N)C(=O)N[C@@H](Cc1ccc(O)cc1)C(=O)N[C@@H](Cc1ccc(O)cc1)C(=O)N[C@H](C(=O)N[C@@H](C)C(=O)N[C@@H](CC(C)C)C(=O)N[C@@H](CCCNC(=N)N)C(=O)N[C@@H](Cc1c[nH]cn1)C(=O)N[C@@H](Cc1ccc(O)cc1)C(=O)N[C@@H](Cc1ccc(O)cc1)C(=O)N[C@@H](CC(N)=O)C(=O)N[C@@H](Cc1c[nH]c2ccccc12)C(=O)N[C@@H](CC(C)C)C(=O)N[C@H](C(=O)N[C@@H](CCCNC(=N)N)C(=O)N[C@@H](CCC(N)=O)C(=O)N[C@@H](CCCNC(=N)N)C(=O)N[C@@H](Cc1ccc(O)cc1)C(N)=O)[C@@H](C)O)C(C)C [Compound 127, N{alpha-4}-(3-methylbutanoyl)-N{epsilon-7}-(6-[(4S)-4-carboxy-4-(17-carboxyheptadecanamido)butanamido]hexanoyl)-[4A,7K,9E,10A,11A,13E,18Q,22V,23A,28Y,30W,31L]-hPYY(4-36)] | 3.36 | 6.5 | >10.0

Source: patent publication US12391737B2, “Soluble NPY2 receptor agonists” (Boehringer Ingelheim International GmbH, priority 2020, dated 2025)
